The test system of data set [1] is P 388 leukemia. Briefly: animal or person. Type of data set: in vivo, CDF1 mice. The settings on record: for ED (T/C 130%): Mus musculus, P388, iv, read-out: Dose for T/C = 130%.
Another data set in a line: in vivo. The settings on record: mouse, iv.
Data set [2] has as its system Adriamycin-resistant P 388 leukemia cells (P 388/ADR). Briefly: cells. Format: cell-based. To be noted: for IC50: Mus musculus, P388, 48 h, read-out: IC50 P388/ADR; for R/S: mouse, 2880 min.
The next data set concerns P388 leukemia. As to the kind of experiment: Antitumor activity against P388 leukemia in mice, i.p. administration (T/C, therapeutic index). Format: in vivo, CDF1 mice. The settings on record: for ED (T/C 130%): Mus musculus, P388, ip, read-out: Dose for T/C = 130 %.
Data set [3] concerns P 388 leukemia. As to the kind of experiment: animal or person. Type of data set: in vivo, CDF1 mice. To be noted: for ED (T/C 130%): Mus musculus, P388, po, read-out: Dose for T/C = 130%.
A further data set has as its system Lewis lung carcinoma. Briefly: Tumor growth inhibition against solid tumors (Lewis lung carcinoma). To be noted: for Tumor growth inhibition: i.v., days 1, 5 and 9, day 13.
In data set [4] the test system is P 388 leukemia. The settings on record: known from the art; cited from earlier work.
The conditions of data set [5]: comp. data from Japanese Patent Application Laid-Open Pub. No. 76896/1980; cited from earlier work.
Setting [6] is: mouse, in vivo, iv, 1 mg/kg/day.
Setting [7] is: mouse, in vivo, iv, 2 mg/kg/day.
Where [8] appears, read: mouse, in vivo, iv, 4 mg/kg/day.
Where [9] appears, read: mouse, in vivo, iv, 8 mg/kg/day.
The mark [10] stands for this setting: mouse, in vivo, ip, 0.5 mg/kg/day.
Setting [11] is: mouse, in vivo, ip, 1 mg/kg/day.
Where [12] appears, read: mouse, in vivo, ip, 2 mg/kg/day.
The mark [13] stands for this setting: mouse, in vivo, ip, 4 mg/kg/day.
[14] abbreviates: mouse, in vivo, po, 1 mg/kg/day.
Setting [15] is: mouse, in vivo, po, 2 mg/kg/day.
Setting [16] is: mouse, in vivo, po, 4 mg/kg/day.
[17] abbreviates: mouse, in vivo, ip, 8 mg/kg/day.
[18] abbreviates: mouse, in vivo, ip, 12 mg/kg/day.
Where [19] appears, read: mouse, in vivo, po, 8 mg/kg/day.
Where [20] appears, read: mouse, in vivo, po, 16 mg/kg/day.
Where [21] appears, read: mouse, in vivo, iv, 16 mg/kg/day.
[22] abbreviates: mouse, in vivo, iv, 32 mg/kg/day.
The mark [23] stands for this setting: mouse, in vivo, ip, 16 mg/kg/day.
The mark [24] stands for this setting: mouse, in vivo, po, 32 mg/kg/day.

Consider six molecules from patent publication US4710564A, “Anthracycline compounds” (Microbial Chemistry Research Foundation, priority 1985, dated 1987).

In brackets after ≈: the same amount, converted by molar mass. Read-outs that look alike come from different tables or passages of the source.

In general, LD50 refers to the dose at which mortality reaches 50%. Turning to `CCC1(O)CC(OC2CC(N3CCOCC3)C(O)C(C)O2)c2c(O)c3c(c(O)c2C1O)C(=O)c1cccc(O)c1C3=O` (stereo not shown) [3'-deamino-3'-(4-morpholinyl)-R20X2], the values for the ED (T/C 130%) in the data set on P 388 leukemia [1], in the data set with P388 leukemia and with P 388 leukemia [3] were 0.43 mg/kg/day, 0.35 mg/kg/day and 0.58 mg/kg/day, respectively. Further, the Therapeutic index amounted to 4.7 in the data set with P 388 leukemia [1] (mouse, in vivo, iv); 5.7 with P388 leukemia (mouse, in vivo, ip); 3.4 with P 388 leukemia [3] (mouse, in vivo, po). In addition, the T/C was 109 with P 388 leukemia [1] (mouse, in vivo, iv, 0.25 mg/kg/day); 136 in the data set on P 388 leukemia [1] (mouse, in vivo, iv, 0.5 mg/kg/day); 154 in the data set on P 388 leukemia [1] (setting [6]); 204 in the data set with P 388 leukemia [1] (setting [7]); 194 in the data set on P 388 leukemia [1] (setting [8]); 35 in the data set on P 388 leukemia [1] (setting [9]). Moreover, the T/C with P388 leukemia (mouse, in vivo, ip, 0.25 mg/kg/day) is 112; in the data set on P388 leukemia (setting [10]) it was 150; with P388 leukemia (setting [11]), 186; in the data set on P388 leukemia (setting [12]) it was > 246; in the data set on P388 leukemia (setting [13]) it was > 158; in the data set with P 388 leukemia [3] (mouse, in vivo, po, 0.25 mg/kg/day) it was 109. Also, the T/C in the data set on P 388 leukemia [3] (mouse, in vivo, po, 0.5 mg/kg/day) is reported as 120; in the data set on P 388 leukemia [3] (setting [14]), 164; with P 388 leukemia [3] (setting [15]) it was 228; with P 388 leukemia [3] (setting [16]), 103. The LD50 in the data set “in vivo” is 3.55 mg/kg. Further, in the data set on heart (dosage level T/C=max), the “toxicity to the heart at dosage level of maximum antitumor activity” value is on record as “not found to be toxic”. The IC50 in data set [2] was 0.011 µg/mL (≈ 0.0188 µM). This molecule returned a R/S in data set [2] of 1.22. Besides, the “Solubility: insoluble” value in “Solubility” (insoluble in) was “insoluble in water, hexane, cyclohexane, diethyl ether, and petroleum ether”. For the same molecule, the “Solubility: soluble” value in the data set “Solubility” (soluble in) is “Soluble in acidic water, basic water, methanol, ethanol, propanol, acetone, ethyl acetate, and chloroform”.

Take `CCC1(O)Cc2c(O)c3c(c(O)c2C(OC2CC(N4CCOCC4)C(O)C(C)O2)C1)C(=O)c1c(O)cccc1C3=O` (stereo not shown) [3'-deamino-3'-(4-morpholinyl)-R20X]: the ED (T/C 130%) was 2.5 mg/kg/day with P 388 leukemia [1], 0.75 mg/kg/day with P388 leukemia and 1.45 mg/kg/day in the data set on P 388 leukemia [3]. Further, the T/C with P 388 leukemia [1] (setting [6]) stood at 104; with P 388 leukemia [1] (setting [7]), 119; with P 388 leukemia [1] (setting [8]), 155; in the data set with P 388 leukemia [1] (setting [9]), 151; with P 388 leukemia [1] (mouse, in vivo, iv, 12 mg/kg/day), 57; with P388 leukemia (setting [10]) it was 104. In addition, the T/C with P388 leukemia (setting [11]) was 148; in the data set with P388 leukemia (setting [12]), 177; with P388 leukemia (setting [13]), 218; in the data set with P388 leukemia (setting [17]) it was > 303; in the data set with P388 leukemia (setting [18]), 231; in the data set with P 388 leukemia [3] (setting [14]), 111. Further, the T/C in the data set with P 388 leukemia [3] (setting [15]) came out at 146; in the data set on P 388 leukemia [3] (setting [16]), 170; with P 388 leukemia [3] (setting [19]), 214; in the data set on P 388 leukemia [3] (setting [20]) it was 219. In addition, the median lethal dose (LD50) in the data set “in vivo” was found to be 12.3 mg/kg. The “toxicity to the heart at dosage level of maximum antitumor activity” value in the data set on heart (hamster, in vivo) is “not found to be toxic”.

For `CCC1(O)Cc2cc3c(c(O)c2C(OC2CC(N4CCOCC4)C(O)C(C)O2)C1)C(=O)c1c(O)cccc1C3=O` (stereo not shown) [3'-deamino-3'-(4-morpholinyl)-R20Y5], the figures for the ED (T/C 130%) with P 388 leukemia [1], with P388 leukemia and in the data set on P 388 leukemia [3] were 4.9 mg/kg/day, 6.2 mg/kg/day and 4.3 mg/kg/day, respectively. The T/C is recorded as 104 with P 388 leukemia [1] (setting [7]); 123 with P 388 leukemia [1] (setting [8]); 148 with P 388 leukemia [1] (setting [9]); 182 in the data set on P 388 leukemia [1] (setting [21]); > 240 in the data set on P 388 leukemia [1] (setting [22]); 104 with P388 leukemia (setting [13]). In addition, the T/C in the data set on P388 leukemia (setting [17]) was determined as 146; with P388 leukemia (setting [23]), 175; in the data set with P388 leukemia (mouse, in vivo, ip, 32 mg/kg/day), 219; in the data set on P388 leukemia (mouse, in vivo, ip, 64 mg/kg/day), 93; with P 388 leukemia [3] (setting [16]), 127; in the data set with P 388 leukemia [3] (setting [19]) it was 154. Further, the T/C in the data set on P 388 leukemia [3] (setting [20]) is on record as 191; in the data set with P 388 leukemia [3] (setting [24]), 263; in the data set on P 388 leukemia [3] (mouse, in vivo, po, 64 mg/kg/day), 238. Further, in the data set on Lewis lung carcinoma (Lewis lung carcinoma), the “antitumor activity against solid tumors (in words)” value is on record as “antitumor activity comparable to or better than that of Adriamycin against solid tumors”. Moreover, the Tumor growth inhibition was found to be 9.6% in the data set with Lewis lung carcinoma (4 mg/kg/day), 31.0% with Lewis lung carcinoma (8 mg/kg/day), 66.6% in the data set on Lewis lung carcinoma (16 mg/kg/day) and 91.7% in the data set on Lewis lung carcinoma (32 mg/kg/day). In the data set “in vivo”, this molecule gave a 50% lethal dose (LD50) of 65 mg/kg. Besides, the “antitumor activity compared with R20Y5 (in words)” value in the data set with P388 leukemia (comparison with R20Y5 of Japanese Laid-Open 76896/1980) was “antitumor activity of R20Y5 can be remarkably increased by 3'-deamino-3'-4-morpholinylation”.

In the case of `CC[C@@]1(O)C[C@H](O[C@H]2C[C@H](N(C)C)[C@H](O[C@H]3C[C@H](O)[C@H](O[C@H]4CCC(=O)[C@H](C)O4)[C@H](C)O3)[C@H](C)O2)c2c(cc3c(c2O)C(=O)c2c(O)cccc2C3=O)[C@H]1C(=O)OC` [Aclacinomycin, reference compound], the “Dose for T/C = 130%” value was 12.4 mg/kg/day with P 388 leukemia [1] (mouse, in vivo, iv); 4.4 mg/kg/day with P388 leukemia (mouse, in vivo, ip); 15 mg/kg/day with P 388 leukemia [3] (mouse, in vivo, po). Besides, the Therapeutic index with P 388 leukemia [1] (mouse, in vivo, iv) is 2.6; in the data set on P388 leukemia (mouse, in vivo, ip) it was 3.6; in the data set with P 388 leukemia [3] (mouse, in vivo, po), 2.1. Further, the T/C is 121 in the data set on P 388 leukemia [1] (setting [8]); 119 in the data set with P 388 leukemia [1] (setting [9]); 151 in the data set with P 388 leukemia [1] (setting [21]); 177 with P 388 leukemia [1] (setting [22]); 35 with P 388 leukemia [1] (mouse, in vivo, iv, 64 mg/kg/day); 111 in the data set on P388 leukemia (setting [12]). Also, the T/C with P388 leukemia (setting [13]) stood at 126; in the data set on P388 leukemia (setting [17]), 155; with P388 leukemia (setting [23]), 182; with P 388 leukemia [3] (setting [19]) it was 119; with P 388 leukemia [3] (setting [20]), 131; in the data set with P 388 leukemia [3] (setting [24]) it was 154. The “effectiveness by oral administration (in words)” value in the data set with P 388 leukemia [4] is “effective in the case of oral administration”. In data set [2], the “IC50 P388/ADR” value is 0.025 µg/mL (≈ 0.0308 µM). The molecule further displayed a R/S in [2] of 1.92.

With `COc1cccc2c1C(=O)c1c(O)c3c(c(O)c1C2=O)C[C@@](O)(C(=O)CO)C[C@@H]3O[C@H]1C[C@H](N)[C@H](O)[C@H](C)O1` [Adriamycin, reference compound], the Tumor growth inhibition was 34.5% in the data set with Lewis lung carcinoma (1 mg/kg/day), 14.1% with Lewis lung carcinoma (2 mg/kg/day), 64.2% in the data set with Lewis lung carcinoma (4 mg/kg/day) and 72.8% in the data set with Lewis lung carcinoma (8 mg/kg/day). The IC50 in [2] was 0.35 µg/mL (≈ 0.644 µM). In addition, the R/S in data set [2] is 29.2. Moreover, the ED (T/C 130%) in the data set on P388 leukemia is < 0.25 mg/kg/day. For the same molecule, the T/C in the data set with P388 leukemia (setting [10]) is 177; in the data set with P388 leukemia (setting [11]), 191; in the data set on P388 leukemia (setting [12]), > 217; in the data set on P388 leukemia (setting [13]), 204; with P388 leukemia (setting [17]), > 256; with P388 leukemia (setting [18]) it was 194.

As to `CCC1(O)Cc2cc3c(c(O)c2C(OC2CC(N)C(O)C(C)O2)C1)C(=O)c1c(O)cccc1C3=O` (stereo not shown) [R20Y5, 11-deoxy-13-deoxocarminomycin], the LD50 in [5] is listed as 15 mg/kg.
